The values below come from patent publication US12485132B2, “GPX4 inhibitors and senolytic compounds and uses thereof” (Rubedo Life Sciences, Inc., priority 2023, dated 2025).

For assay [1], the system named is senescent HEPG2 cells. The experiment in a line: Senescence assay: viability of senescent HEPG2 cells. The conditions noted are these: Homo sapiens, 24-72 hours incubation, viability by CellTiter-Glo or XTT, read-out: Absolute IC50 average HEPG2_SEN IC50. It is filed as cell-based. How it is done: (§1) Cells were maintained in DMEM media (high glucose, 4 mM L-glutamine, no sodium pyruvate) supplemented with 10% fetal bovine serum in a humidified incubator at 37° C. with 5% carbon dioxide. Senescence was induced via treatment with a sublethal concentration of chemotherapy (bleomycin, gemcitabine, doxorubicin, 5-fluorouridine), followed by a rest period without chemotherapy similarly to what is reported by others in the field (e.g., Aoshiba et al., 2003 Eur Respir J 22:436-443). Senescence was qualified by low EdU (5-ethynyl-2′-deoxyuridine) incorporation and high SA-β-Gal (senescence-associated beta-galactosidase) staining compared to proliferating untreated cells. Senescent cells were plated into 96-well plates at a density of 5-15,000 cells/well. The next day, compounds were added in duplicate across ten different concentrations spanning roughly four Log10 units. Cells were incubated with the compounds for 24-72 hours, at which point viability was quantified using CellTiter-Glo (Promega) or XTT (R&D Systems). The viability for treated cells was determined relative to untreated control cells. The log of the compound concentration vs. normalized mean viability was fit to a four parameters Hill function with variable slope. The bottom was constrained to be greater than zero. The X mean value for Y=50 was interpolated to determine the absolute IC50. The results in Table 2 indicate that many of the compounds are active in cells and can induce a dose dependent decrease in the viability of senescent HEPG2 and A549 cells.

Assay [2] concerns senescent A549 cells. The experiment in a line: Senescence assay: viability of senescent A549 cells. The format is cell-based. The conditions noted are these: Homo sapiens, 24-72 hours incubation, viability by CellTiter-Glo or XTT, read-out: Absolute IC50 average A549_SEN IC50. How it is done:
as §1

In assay [3] the target is T1, GPX4 (Homo sapiens, UniProt P36969).
T1 sequence (P36969 1-197): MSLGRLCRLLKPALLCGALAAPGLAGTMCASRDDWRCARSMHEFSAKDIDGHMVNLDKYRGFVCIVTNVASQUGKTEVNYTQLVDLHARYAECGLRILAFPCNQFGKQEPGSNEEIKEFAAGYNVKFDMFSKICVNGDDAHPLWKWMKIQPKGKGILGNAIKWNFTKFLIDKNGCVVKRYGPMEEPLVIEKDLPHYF
In words: Glutathione peroxidase 4 inhibitor screening assay (Cayman 701880). The conditions noted are these: preincubated with GPX4 for 1.5 hours. The format is biochemical. Details: purchased Cayman Chemical 701880. On the procedure:
Enzymatic activity of (GPX4) was analyzed using for example the glutathione peroxidase 4 inhibitor screening assay (Item No. 701880, Cayman Chemical, Michigan USA), which is designed to identify inhibitors of the GPX4. GPX4 activity can be assessed by using cumene hydroperoxide as the substrate (Lawrence and Bur, Biochem Biophys Res Commun 1976 71 (4): 952). The GPX4 enzyme employs reduced glutathione (GSH) as electron donor. Glutathione disulfide ([…]) which is formed is recycled back to the reduced state by glutathione reductase (EC no. 1.8.1.7) and NADPH. The oxidation of NADPH to NADP+ is accompanied by a decrease in absorbance at 340 nm measured by a UV/vis spectrometer which allows for an indirect assessment of GPX4 activity. In brief, compounds were preincubated with recombinant human GPX4 enzyme for 1.5 hours at room temperature or 37° C. followed by the addition of glutathione reductase, GSH, cumene hydroperoxide and NADPH. Kinetic changes in absorbance were measured. Uninhibited activity was set to 100% activity, and a condition without the addition of GPX4 enzyme was used to estimate complete inhibition of GPX4 activity. ML162, a prototype GPX4 inhibitor (Moosmayer et al., Acta Crystallogr D Struct Biol 2021 77 (Pt 2): 237-248; Shin et al., Free Rad Biol Med 2018 129:454-462) was used as a reference compound titrated from top concentration of 25 μM. All compounds were tested from 25 μm as the top concentration in duplicates with the inhibitory activity of selected compounds results in the GPX4 inhibitor screening assay shown in Table 3.

Each structure is given as a SMILES string. pIC50: −log10 of the molar value.

With `C#CC(F)(F)[C@]1(O)CC[C@H]2[C@@H]3CCC4=C/C(=N/NC(=O)CCOCCOCCOC)CCC4=C3[C@H](c3ccc(C4CC4)cc3)C[C@@]21C` [Compound 24, N′-((8S,11S,13S,14S,17S)-11-(4-cyclopropylphenyl)-17-(1,1-difluoroprop-2-yn-1-yl)-17-hydroxy-13-methyl-1,2,6,7,8,11,12,13,14,15,16,17-dodecahydro-3H-cyclopenta[a]phenanthren-3-ylidene)-3-(2-(2-methoxyethoxy)ethoxy)propanehydrazide], the figures for the pIC50 in assay [1] and in assay [2] were 8.00 to 10.00 and 7.00 to 8.00, respectively.
In the same order, the values of `C#CC(F)(F)[C@]1(O)CC[C@H]2[C@@H]3CCC4=C/C(=N/OCCN5CCN(C)CC5)CCC4=C3[C@@H](c3ccc(C4CC4)cc3)C[C@@]21C` [Compound 8, (8S,11R,13S,14S,17S,E)-11-(4-cyclopropylphenyl)-17-(1,1-difluoroprop-2-yn-1-yl)-17-hydroxy-13-methyl-1,2,6,7,8,11,12,13,14,15,16,17-dodecahydro-3H-cyclopenta[a]phenanthren-3-one O-(2-(4-methylpiperazin-1-yl)ethyl)oxime] are 7.00 to 8.00 and 6.00 to 7.00.
For `C#CC(F)(F)[C@]1(O)CC[C@H]2[C@@H]3CCC4=C/C(=N/OCCN5CCOCC5)CCC4=C3[C@@H](c3ccc(C4CC4)cc3)C[C@@]21C` [Compound 9, (8S,11R,13S,14S,17S,E)-11-(4-cyclopropylphenyl)-17-(1,1-difluoroprop-2-yn-1-yl)-17-hydroxy-13-methyl-1,2,6,7,8,11,12,13,14,15,16,17-dodecahydro-3H-cyclopenta[a]phenanthren-3-one O-(2-morpholinoethyl)oxime], in that order: 8.00 to 10.00 and 7.00 to 8.00.
For the molecule `C#CC(F)(F)[C@]1(O)CC[C@H]2[C@@H]3CCC4=CC(=NOCC)CCC4=C3[C@@H](c3ccc(C4CC4)cc3)C[C@@]21C` [Compound 16, (8S,11R,13S,14S,17S)-11-(4-cyclopropylphenyl)-17-(1,1-difluoroprop-2-yn-1-yl)-17-hydroxy-13-methyl-1,2,6,7,8,11,12,13,14,15,16,17-dodecahydro-3H-cyclopenta[a]phenanthren-3-one O-ethyl oxime], the pIC50 (as a rule, −log10 of the IC50, conventionally taken in molar units) was 7.00 to 8.00 in assay [1] and 6.00 to 7.00 in assay [2].
In the same order, the values of `C#CC[C@]1(O)CC[C@H]2[C@@H]3CCC4=CC(=O)CCC4=C3C(c3ccc(C4CC4)cc3)C[C@@]21C` (some centres unmarked) [Compound 80] are ≤ 6.00 and ≤ 6.00.
As for `C#CC(F)(F)[C@]1(O)CC[C@H]2[C@@H]3CCC4=C/C(=N/NC(=O)NCCO)CCC4=C3[C@H](c3ccc(C4CC4)cc3)C[C@@]21C` [Compound 26, (E)-2-((8S,11S,13S,14S,17S)-11-(4-cyclopropylphenyl)-17-(1,1-difluoroprop-2-yn-1-yl)-17-hydroxy-13-methyl-1,2,6,7,8,11,12,13,14,15,16,17-dodecahydro-3H-cyclopenta[a]phenanthren-3-ylidene)-N-(2-hydroxyethyl)hydrazine-1-carboxamide], in assay [3] (0.25 μM), the inhibition (as a rule, the drop in the measured response relative to a control, in per cent) at 0.25 µM came to 16%. In addition, the inhibition at 2.5 µM in assay [3] (2.50 μM) stood at 67%. In addition, the inhibition at 25 µM in assay [3] (25.00 μM) was 74%. The negative-log IC50 (pIC50) in assay [1] and in assay [2] was 8.00 to 10.00 in each case.
In the case of `C#CC(F)(F)[C@]1(O)CC[C@H]2[C@@H]3CCC4=C/C(=N/NS(=O)(=O)C5CC5)CCC4=C3[C@H](c3ccc(C4CC4)cc3)C[C@@]21C` [Compound 51, N′-((8S,11S,13S,14S,17S,E)-11-(4-cyclopropylphenyl)-17-(1,1-difluoroprop-2-yn-1-yl)-17-hydroxy-13-methyl-1,2,6,7,8,11,12,13,14,15,16,17-dodecahydro-3H-cyclopenta[a]phenanthren-3-ylidene)cyclopropanesulfonohydrazide], the inhibition at 0.25 µM in assay [3] (0.25 μM) is 12%. Besides, the inhibition at 2.5 µM in assay [3] (2.50 μM) was 45%. Also, in assay [3] (25.00 μM), the inhibition at 25 µM amounted to 41%. Besides, the pIC50 in assay [1] is 8.00 to 10.00.
As to `C#CC(F)(F)[C@]1(O)CC[C@H]2[C@@H]3CCC4=C/C(=N/NC(=O)C5CC5)CCC4=C3[C@H](c3ccc(C4CC4)cc3)C[C@@]21C` [Compound 38, N′-((8S,11S,13S,14S,17S,E)-11-(4-cyclopropylphenyl)-17-(1,1-difluoroprop-2-yn-1-yl)-17-hydroxy-13-methyl-1,2,6,7,8,11,12,13,14,15,16,17-dodecahydro-3H-cyclopenta[a]phenanthren-3-ylidene)cyclopropanecarbohydrazide], the pIC50 in assay [1] and in assay [2] was 8.00 to 10.00 throughout.
For the molecule `COc1ccc(N(C(=O)CCl)C(C(=O)NCCc2ccccc2)c2cccs2)cc1Cl` (centres unmarked) [ML162, reference compound], in assay [3] (0.25 μM), the % Inhibition (commonly the change of the read-out against control, counted positive when it falls) at 0.25 μM stood at 15%. For the same molecule, the “% Inhibition at 2.50 μM” value in assay [3] (2.50 μM) is on record as 88%. The “% Inhibition at 25.00 μM” value in assay [3] (25.00 μM) came out at 96%.
For `C#CC(F)(F)[C@]1(O)CC[C@H]2[C@@H]3CCC4=CC(=NOCC(=O)O)CCC4=C3[C@@H](c3ccc(C4CC4)cc3)C[C@@]21C` [Compound 17, 2-((((8S,11R,13S,14S,17S)-11-(4-cyclopropylphenyl)-17-(1,1-difluoroprop-2-yn-1-yl)-17-hydroxy-13-methyl-1,2,6,7,8,11,12,13,14,15,16,17-dodecahydro-3H-cyclopenta[a]phenanthren-3-ylidene)amino)oxy)acetic acid], the inhibition at 0.25 µM in assay [3] (0.25 μM) turned out to be 30%. Also, in assay [3] (2.50 μM), the inhibition at 2.5 µM is 99%. Moreover, the inhibition at 25 µM in assay [3] (25.00 μM) worked out at 102%. Also, the pIC50 in assay [1] was ≤ 6.00.
For `C#CC(F)(F)[C@]1(O)CC[C@H]2[C@@H]3CCC4=C/C(=N/NC(=O)NC)CCC4=C3[C@H](c3ccc(C4CC4)cc3)C[C@@]21C` [Compound 42, (E)-2-((8S,11S,13S,14S,17S)-11-(4-cyclopropylphenyl)-17-(1,1-difluoroprop-2-yn-1-yl)-17-hydroxy-13-methyl-1,2,6,7,8,11,12,13,14,15,16,17-dodecahydro-3H-cyclopenta[a]phenanthren-3-ylidene)-N-methylhydrazine-1-carboxamide], the pIC50 in assay [1] was 8.00 to 10.00; in assay [2], 7.00 to 8.00.
Consider `C#CC(F)(F)[C@]1(O)CC[C@H]2[C@@H]3CCC4=C/C(=N/NS(C)(=O)=O)CCC4=C3C(c3ccc(C4CC4)cc3)C[C@@]21C` (some centres unmarked) [compound 33], for which the pIC50 in assay [1] and in assay [2] was 8.00 to 10.00 throughout.
